Assay results from patent US5859067A, “Use of natural products and related synthetic compounds for the treatment of cardiovascular disease” (priority 1993, dated 1999).
Several values for one entry are separate records, joined by “and”; a condition that tells them apart may be missing. Identical values can stand only once.

target: T1, human erythrocyte plasma membrane Ca^2+ -ATPase (Homo sapiens, UniProt P23634); assay: Ca^2+ -ATPase assay (erythrocyte membranes; Table 1); format: biochemical; settings: not given
T1 construct: Calmodulin-depleted erythrocyte membranes were prepared by continuous filtration through a hollow fibre; tissue New South Wales Red Cross Transfusion Service, Sydney; host or cells: human packed red blood cells (calmodulin-depleted erythrocyte membranes)
Protocol: Natural and synthetic compounds of formula (I) were tested for their ability to influence human erythrocyte plasma membrane Ca^2+ -ATPase.
(§1) Packed cells were obtained from the New South Wales Red Cross Transfusion Service, Sydney. The whole preparation was carried out at 4° C. 1 unit of packed red cells was washed 3 times with isotonic buffer, containing 130 mM KCl, 20 mM Tris-HCl (pH 7.4), and the cells were collected by centrifugation at 4,000 RPM. The cells were haemolysed by the buffer containing 1 mM EDTA, 10 mM Tris-Hcl (pH 7.4), 0.5 mM PMSF (phenylmethyl sulfonyl fluoride). The haemolyzate mixture was passed through the hollow fibre system until the membrane appeared white, and then washed with 10 mM potassium Hepes (pH 7.4). The membranes were collected by centrifugation at 10,000 RPM for 20 min, the membranes were resuspended in storage buffer containing 130 mM KCl, 2 mM dithiothreitol, 0.5 mM MgCl2, 20 mM potassium-Hepes (pH 7.5). The membranes with protein concentration of 1.5-5.4 mg/ml were stored at -80° C. until required.
Erythrocyte membranes (0.071-0.098 mg/ml) were incubated at 37° C. for one hour in a total volume of 0.4 ml of 65 mM KCl, 20 mM potassium-Hepes, 5 mM MgCl2, 50 μM CaCl2, 0.1 μm calmodulin, 0.1 mM EGTA. The reaction was started by adding 2 mM ATP(pH 7.4). […] The activity of the Mg^2+ -ATPase (assayed in the absence of added CaCl2) was subtracted from the total activity assayed in the presence of Ca^2+. […] A concentrated solution of the test substances was added to the reaction medium before adding ATP.

T1 sequence (P23634 1-1205 isoform P23634-6): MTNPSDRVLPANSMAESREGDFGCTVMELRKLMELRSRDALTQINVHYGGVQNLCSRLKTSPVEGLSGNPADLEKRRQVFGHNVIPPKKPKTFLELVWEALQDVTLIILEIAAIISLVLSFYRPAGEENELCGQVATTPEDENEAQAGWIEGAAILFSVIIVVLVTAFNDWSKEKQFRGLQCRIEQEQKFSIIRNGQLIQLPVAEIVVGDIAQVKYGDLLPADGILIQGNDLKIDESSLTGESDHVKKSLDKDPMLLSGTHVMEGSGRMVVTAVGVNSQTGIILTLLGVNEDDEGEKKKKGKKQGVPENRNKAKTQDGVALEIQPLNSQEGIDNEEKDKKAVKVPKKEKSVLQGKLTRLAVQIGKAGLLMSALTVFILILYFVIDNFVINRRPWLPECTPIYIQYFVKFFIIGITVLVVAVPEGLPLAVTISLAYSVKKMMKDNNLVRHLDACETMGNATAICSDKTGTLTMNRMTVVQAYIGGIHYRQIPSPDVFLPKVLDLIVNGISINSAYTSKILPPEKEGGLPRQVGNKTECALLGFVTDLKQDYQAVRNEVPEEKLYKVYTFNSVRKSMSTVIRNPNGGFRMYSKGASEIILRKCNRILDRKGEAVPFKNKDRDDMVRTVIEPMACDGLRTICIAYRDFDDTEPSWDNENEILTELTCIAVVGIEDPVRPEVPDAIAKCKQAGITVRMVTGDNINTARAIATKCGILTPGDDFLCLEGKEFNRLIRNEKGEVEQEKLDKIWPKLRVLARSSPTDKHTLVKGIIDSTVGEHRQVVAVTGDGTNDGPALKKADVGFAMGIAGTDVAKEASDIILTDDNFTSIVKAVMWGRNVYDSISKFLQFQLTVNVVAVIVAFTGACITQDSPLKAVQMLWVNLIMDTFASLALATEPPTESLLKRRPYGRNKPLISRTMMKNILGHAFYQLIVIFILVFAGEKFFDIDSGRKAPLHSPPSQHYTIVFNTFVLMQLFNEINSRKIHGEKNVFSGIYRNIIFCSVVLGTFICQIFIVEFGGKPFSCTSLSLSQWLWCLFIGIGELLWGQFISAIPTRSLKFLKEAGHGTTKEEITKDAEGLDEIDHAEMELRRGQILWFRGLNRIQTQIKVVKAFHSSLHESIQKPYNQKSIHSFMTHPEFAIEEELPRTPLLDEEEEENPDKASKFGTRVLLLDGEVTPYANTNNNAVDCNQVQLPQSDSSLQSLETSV
T1 sequence (P35613 140-385 partner limits assumed): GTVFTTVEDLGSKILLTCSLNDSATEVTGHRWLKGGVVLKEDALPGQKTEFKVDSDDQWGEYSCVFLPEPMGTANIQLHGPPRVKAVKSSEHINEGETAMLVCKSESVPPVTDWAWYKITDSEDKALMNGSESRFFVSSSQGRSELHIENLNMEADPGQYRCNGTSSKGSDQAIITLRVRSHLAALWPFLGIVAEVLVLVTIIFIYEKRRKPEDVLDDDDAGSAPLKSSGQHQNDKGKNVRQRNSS

Row | Compound | IC50 [µM]
1 | Oc1ccccc1C1CCCCC1 [2-cyclohexylphenol] | 186
2 | CCCCCCCCCc1ccc(O)cc1 [4-nonylphenol] | 114

same assay, conditions: at 100 μM; read-out: INHIBITION OF Ca^2+ -ATPase PERCENT (%)

Row | Compound | inhibition at 100 µM [%]
3 | Oc1cc(O)cc(CCCCCCCCCCCCCCc2cc(O)cc(O)c2)c1 [bisnorstriatol, 1,14-bis(3,5-dihydroxyphenyl)tetradecane] | 35
4 | CCCCCCCCCCc1c(Br)c(O)c(Br)c(O)c1C(=O)OCC [ethyl 3,5-dibromo-2,4-dihydroxy-6-decylbenzoate] | 73
5 | CCCCCCCCCc1c(Br)c(O)c(Br)c(O)c1C(=O)OCC [ethyl 3,5-dibromo-2,4-dihydroxy-6-nonylbenzoate] | 95
6 | CCCCCCCCCc1cc(O)cc(O)c1 [5-nonylresorcinol] | 44

same assay, conditions: at 500 μM

Row | Compound | inhibition at 500 µM [%]
7 | Oc1cc(O)cc(CCCCCCCCCCCCCCc2cc(O)cc(O)c2)c1 [bisnorstriatol, 1,14-bis(3,5-dihydroxyphenyl)tetradecane] | 69.1

same assay, conditions: read-out: INHIBITION OF Ca^2+ -ATPase IC50

Row | Compound | IC50 [µM]
8 | Oc1cc(O)cc(CCCCCCCCCCCCCCc2cc(O)cc(O)c2)c1 [bisnorstriatol, 1,14-bis(3,5-dihydroxyphenyl)tetradecane] | > 100
9 | CCCCCCCCCCc1c(Br)c(O)c(Br)c(O)c1C(=O)OCC [ethyl 3,5-dibromo-2,4-dihydroxy-6-decylbenzoate] | 69
10 | CCCCCCCCCc1c(Br)c(O)c(Br)c(O)c1C(=O)OCC [ethyl 3,5-dibromo-2,4-dihydroxy-6-nonylbenzoate] | 44
11 | CCCCCCCCCc1cc(O)cc(O)c1 [5-nonylresorcinol] | 108

same assay, conditions: read-out: INHIBITION OF Ca^2+ -ATPase PERCENT (%)

Row | Compound | inhibition at 100 µM [%]
12 | Oc1ccccc1C1CCCCC1 [2-cyclohexylphenol] | 28
13 | CCCCCCCCCc1ccc(O)cc1 [4-nonylphenol] | 22

target: T1, human erythrocyte plasma membrane Ca^2+ -ATPase; assay: Ca^2+ -ATPase assay (microplate method), absence (-CaM) and presence (+CaM) of calmodulin (Table 1A); format: biochemical; settings: not given
Protocol: Natural and synthetic compounds of formula (I) were tested for their ability to influence human erythrocyte plasma membrane Ca^2+ -ATPase. The enzyme Ca^2+ -ATPase in the human red blood cell plasma membrane has previously been studied and its stimulation by calmodulin and activation by lipids and proteolysis and its primary structure have been published (see Carafoli E (1991) Calcium pump of the plasma membrane, Physiological Reviews 71, 129-153.
as §1, with “Calmodulin-depleted erythrocyte membranes were prepared by continuous filtration through a hollow fibre, Ashahi plasma separator as described by W S Price, B D Roufogalis, P W Kuchel (1989), A simple and inexpensive method for preparing erythrocyte membranes by filtration through a hollow-filter system, Anal. Biochem., 179, 190-193. Packed” for “Packed”
Erythrocyte membranes were incubated at 37° C. for one hour in a total volume of 60 μl of 65 mM KCl, 50 mM HEPES (pH=7.4), 5 mM MgCl2, 50 μM CaCl2, 0.1 mM EGTA and in absence and presence of calmodulin (0.3 μM). Test compounds were dissolved in dimethyl sulfoxide DMSO and 2 μl was added to the assay mixture prior the addition of ATP. The final concentration of DMSO in the assay mixture was 3%. The reaction was started by adding 2 mM ATP (pH=7.4). After 1 hour of incubation, colouring agent (180 μl) was added and incubated at 37° C. for 1/2 hrs. The phosphate liberated to the assay medium was determined spectrometrically using a microplate reader at 750 nm. The activity of the Mg^2+ -ATPase (assayed in the absence of added CaCl2) was subtracted from the total activity assayed in the presence of Ca^2+.

Row | Compound | Ca^2+ -ATPase inhibitory activity (in words)
14 | Oc1ccc(CCCCCCCCCCc2ccc(O)cc2O)c(O)c1 [1,10-bis(2,4-dihydroxyphenyl)decane] | most potent inhibitors of plasma Ca^2+ -ATPase among the synthesised substances

same assay, conditions: IC50 (+CaM), presence of calmodulin (0.3 μM)

Row | Compound | IC50 [µM]
15 | CCCCCCCCCc1ccc(C)cc1O [3-methyl-6-nonylphenol] | 60
16 | CCCCCCCCCc1cc([N+](=O)[O-])ccc1O [4-nitro-6-nonylphenol] | 70
17 | CCCCCCCCCc1cc(Br)ccc1O [4-bromo-6-nonylphenol] | 55
18 | CCCCCCCCCc1cc([N+](=O)[O-])cc(Br)c1O [2-bromo-4-nitro-6-nonylphenol] | 70
19 | CCCCCCCCCc1cc(C)ccc1O [4-methyl-6-nonylphenol] | 75
20 | CCCCCCCCCc1cc(Br)cc([N+](=O)[O-])c1O [4-bromo-2-nitro-6-nonylphenol] | 65.5

same assay, conditions: IC50 (-CaM), absence of calmodulin

Row | Compound | IC50 [µM]
21 | CCCCCCCCCc1ccc(C)cc1O [3-methyl-6-nonylphenol] | 52
22 | CCCCCCCCCc1cc([N+](=O)[O-])ccc1O [4-nitro-6-nonylphenol] | 80
23 | CCCCCCCCCc1cc(Br)ccc1O [4-bromo-6-nonylphenol] | 52
24 | CCCCCCCCCc1cc(C)ccc1O [4-methyl-6-nonylphenol] | 80

same assay, conditions: absence of calmodulin; read-out: IC50 (-CaM)

Row | Compound | IC50 [µM]
25 | 2-bromo-6-nonylresorcinol | 400
26 | Cc1c(O)ccc(CCCCCCCCCCc2ccc(O)c(C)c2O)c1O [1,10-bis(2,4-dihydroxy-3-methylphenyl)decane] | 100
27 | Cc1ccc(CCCCCCCCCCc2ccc(C)c(O)c2)cc1O [1,10-bis(3-hydroxy-4-methylphenyl)decane] | 51
28 | Oc1ccc(CCCCCCCCCCc2ccc(O)cc2O)c(O)c1 [1,10-bis(2,4-dihydroxyphenyl)decane] | 10

same assay, conditions: presence of calmodulin (0.3 μM); read-out: IC50 (+CaM)

Row | Compound | IC50 [µM]
29 | 2-bromo-6-nonylresorcinol | 400
30 | Cc1c(O)ccc(CCCCCCCCCCc2ccc(O)c(C)c2O)c1O [1,10-bis(2,4-dihydroxy-3-methylphenyl)decane] | 100
31 | Cc1ccc(CCCCCCCCCCc2ccc(C)c(O)c2)cc1O [1,10-bis(3-hydroxy-4-methylphenyl)decane] | 48
32 | Oc1ccc(CCCCCCCCCCc2ccc(O)cc2O)c(O)c1 [1,10-bis(2,4-dihydroxyphenyl)decane] | 16

tested on: brine shrimp (Artemia salina Leach); assay: Brine shrimp toxicity bioassay; format: in vivo; settings: 24 hours
Protocol: There are many applications of the assay including analysis of toxic substances, anaesthetics, morphine-like substances and cocarcinogenicity of phorbol esters.
6 (K Hostettman, ed.), Academ Press, London, 1-32. DMSO solutions of the substances to be tested were added directly to the vials containing the brine shrimp. As the concentration of DMSO that we wished to use was higher than the recommended 1% v/v testing of the toxicity of the DMSO was therefore necessary.
Brine shrimp toxicity was assayed, except for some minor modifications, according to the method of McLaughlin et al as reported in Brine Shrimp: A convenient general bioassay for active plant constituents, B N Meyer, N R Ferrigni, J E Putman, L B Jacobsen, D E Nhols and J L McLaughlin. […] J L McLaughlin. […] 6 (K Hostettman, ed.), Academ Press, London, 1-32. Ten shrimp were added transferred to each of the vials and the volume adjusted to 4.9 mL. Each dose was performed in triplicate, including the control. In quick succession, the appropriate volume of additional DMSO for each dose, required to achieve a final concentration of 2%, was added before the appropriate volume of test solution. The vials were gently mixed and the time noted. After 24 hours, the number of survivors were counted and % mortality was determined.
The LC50 values were expressed in both μM and μg/mL.

Row | Compound | toxicity to brine shrimp (in words)
33 | Oc1ccc(CCCCCCCCCCc2ccc(O)cc2O)c(O)c1 [1,10-bis(2,4-dihydroxyphenyl)decane] | relatively low toxicity
34 | Oc1cc(O)cc(CCCCCCCCCCCCCCc2cc(O)cc(O)c2)c1 [bisnorstriatol, 1,14-bis(3,5-dihydroxyphenyl)tetradecane] | relatively low toxicity

same assay, conditions: Artemia salina, 24 h, read-out: LC50 brine shrimp

Row | Compound | LC50
35 | CCCCCCCCCc1ccc(O)cc1 [4-nonylphenol] | 400 nM and 0.088 µg/mL

same assay, conditions: Artemia salina; 24 hours; read-out: LC50 brine shrimp

Row | Compound | LC50
36 | Cc1c(O)ccc(CCCCCCCCCCc2ccc(O)c(C)c2O)c1O [1,10-bis(2,4-dihydroxy-3-methylphenyl)decane] | > 25 µM and > 9.7 µg/mL
37 | Cc1ccc(CCCCCCCCCCc2ccc(C)c(O)c2)cc1O [1,10-bis(3-hydroxy-4-methylphenyl)decane] | 11 µM and 3.9 µg/mL
38 | Oc1ccc(CCCCCCCCCCc2ccc(O)cc2O)c(O)c1 [1,10-bis(2,4-dihydroxyphenyl)decane] | 37 µM and 13 µg/mL
39 | Oc1cc(O)cc(CCCCCCCCCCCCCCc2cc(O)cc(O)c2)c1 [bisnorstriatol, 1,14-bis(3,5-dihydroxyphenyl)tetradecane] | 40 µM and 17 µg/mL
40 | CCCCCCCCCCc1c(Br)c(O)c(Br)c(O)c1C(=O)OCC [ethyl 3,5-dibromo-2,4-dihydroxy-6-decylbenzoate] | 780 nM and 0.37 µg/mL
41 | Oc1ccccc1C1CCCCC1 [2-cyclohexylphenol] | > 25 µM and > 4.4 µg/mL
42 | CCCCCCCCCc1c(Br)c(O)c(Br)c(O)c1C(=O)OCC [ethyl 3,5-dibromo-2,4-dihydroxy-6-nonylbenzoate] | 780 nM and 0.36 µg/mL
43 | CCCCCCCCCc1cc(O)cc(O)c1 [5-nonylresorcinol] | > 100 µM and > 18 µg/mL
